Reference: patent EP4768484A1, “HETEROCYCLIC FUSED RING COMPOUND, AND COMPOSITION AND USE THEREOF” (Shenzhen TargetRx, Inc., priority 2023, dated 2025)

Experiments:
Type in all cases: cell-based
Ba/F3 BCR-ABL1 WT = molecular target: T1, Ba/F3 BCR-ABL1 WT (Homo sapiens, UniProt P00519+P11274); test: Cell growth inhibitory activity assay (CellTiter-Glo), Ba/F3 BCR-ABL1 WT cells; conditions: 72 h, CTG cell viability
T1 construct: BCR (N-terminal fusion partner of the oncoprotein); expressed in transfected cells; host or cells: Ba/F3 (lentiviral transduction, monoclonal line)
Outline: (§1)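 Compound dilutions applied for 72 h (37 °C, 5% CO2) to overnight-plated Ba/F3 cells, parental or engineered to express WT/mutant BCR-ABL1. ATP-based CellTiter-Glo luminescence read, referenced to day-0 viability and 0.5% DMSO wells; IC50 fitted by four-parameter logistic curve.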

Ba/F3 BCR-ABL1 T315I = molecular target: T2, Ba/F3 BCR-ABL1 T315I (Homo sapiens, UniProt P00519+P11274, T315I); test: Cell growth inhibitory activity assay (CellTiter-Glo), Ba/F3 BCR-ABL1 T315I cells; conditions: 72 h, CTG cell viability
T2 construct: BCR (N-terminal fusion partner of the oncoprotein); expressed in transfected cells; host or cells: Ba/F3 (lentiviral transduction, monoclonal line)
Outline: as §1

K562 cells = test: Cell growth inhibitory activity assay (CellTiter-Glo), K562 cells; conditions: Homo sapiens, 72 h, CTG cell viability
Outline: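 K562 cells in logarithmic growth were counted, diluted and plated in 96-well plates, with medium-only blanks and a separate T0 plate read by CTG the following day. After overnight incubation, graded compound concentrations were added for 72 h, with 0.5% DMSO wells as growth controls. Luminescence was read on a Biotek cytation3.0, and IC50 came from nonlinear fitting in GraphPad Prism 7.0.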

Ba/F3 parental cells = test: Cell growth inhibitory activity assay (CellTiter-Glo), Ba/F3 parental cells; conditions: Mus musculus, BaF3, 72 h, CTG cell viability, read-out: IC50 Ba/F3 BCR-ABL1 Parental
Outline: as §1

Row | IC50 (K562 cells) [nM] | Compound | IC50 (Ba/F3 BCR-ABL1 WT) [nM] | IC50 (Ba/F3 BCR-ABL1 T315I) [nM] | IC50 (Ba/F3 parental cells) [nM]
1 | ≤ 5 | C[C@@H]1COCc2nc3cc(C(=O)Nc4ccc(OC(F)(F)Cl)cc4)cc(-c4cnc5c(c4)-c4nn(-c6nccc(-c7cccnc7)n6)cc4C5)c3n21 [T-87, (R)-N-(4-(chlorodifluoromethoxy)phenyl)-4-methyl-6-(2-(4-(pyridin-3-yl)pyrimidin-2-yl)-2,4-dihydropyrazolo[3',4':3,4]cyclopenta[1,2-b]pyridin-7-yl)-3,4-dihydro-1H-benzo[4,5]imidazo[2,1-c][1,4]oxazine-8-carboxamide] | ≤ 5 | ≤ 5 | > 1000
2 | ≤ 5 | C[C@@H]1COCc2nc3cc(C(=O)Nc4ccc(OC(F)(F)Cl)cc4)cc(-c4cnc5c(c4)-c4nn(-c6nccc(N7CCOCC7)n6)cc4C5)c3n21 [T-88, (R)-N-(4-(chlorodifluoromethoxy)phenyl)-4-methyl-6-(2-(4-morpholinopyrimidin-2-yl)-2,4-dihydropyrazolo[3',4':3,4]cyclopenta[1,2-b]pyridin-7-yl)-3,4-dihydro-1H-benzo[4,5]imidazo[2,1-c][1,4]oxazine-8-carboxamide] | ≤ 5 | ≤ 5 | > 1000
3 | ≤ 5 | C[C@@H]1COCc2nc3cc(C(=O)Nc4ccc(OC(F)(F)Cl)cc4)cc(-c4cnc5c(c4)-c4nn(-c6nccc(-c7ccc(F)cc7)n6)cc4C5)c3n21 [T-89, (R)-N-(4-(chlorodifluoromethoxy)phenyl)-6-(2-(4-(4-fluorophenyl)pyrimidin-2-yl)-2,4-dihydropyrazolo[3',4':3,4]cyclopenta[1,2-b]pyridin-7-yl)-4-methyl-3,4-dihydro-1H-benzo[4,5]imidazo[2,1-c][1,4]oxazine-8-carboxamide] | ≤ 5 | ≤ 5 | > 1000
4 | ≤ 5 | C[C@@H]1COCc2nc3cc(C(=O)Nc4ccc(OC(F)(F)Cl)cc4)cc(-c4cnc5c(c4)-c4nn(-c6nccc(-c7ccn(C)n7)n6)cc4C5)c3n21 [T-90, (R)-N-(4-(chlorodifluoromethoxy)phenyl)-4-methyl-6-(2-(4-(1-methyl-1H-oyrazol-3-yl)pyrimidin-2-yl)-2,4-dihydropyrazolo[3',4':3,4]cyclopenta[1,2-b]pyridin-7-yl)-3,4-dihydro-1H-benzo[4,5]imidazo[2,1-c][1,4]oxazine-8-carboxamide] | ≤ 5 | ≤ 5 | > 1000
5 | ≤ 5 | COc1ccc(-c2ccnc(-n3ncc4c3-c3cc(-c5cc(C(=O)Nc6ccc(OC(F)(F)Cl)cc6)cc6nc7n(c56)[C@H](C)COC7)cnc3C4)n2)cc1F [T-91-A, (R)-N-(4-(chlorodifluoromethoxy)phenyl)-6-(1-(4-(3-fluoro-4-methoxyphenyl)pyrimidin-2-yl)-1,4-dihydropyrazolo[3',4':3,4]cyclopenta[1,2-b]pyridin-7-yl)-4-methyl-3,4-dihydro-1H-benzo[4,5]imidazo[2,1-c][1,4]oxazine-8-carboxamide] | 5 to 50 | 50 to 1000 | > 1000
6 | ≤ 5 | COc1ccc(-c2ccnc(-n3cc4c(n3)-c3cc(-c5cc(C(=O)Nc6ccc(OC(F)(F)Cl)cc6)cc6nc7n(c56)[C@H](C)COC7)cnc3C4)n2)cc1F [T-91-B, (R)-N-(4-(chlorodifluoromethoxy)phenyl)-6-(2-(4-(3-fluoro-4-methoxyphenyl)pyrimidin-2-yl)-2,4-dihydropyrazolo[3',4':3,4]cyclopenta[1,2-b]pyridin-7-yl)-4-methyl-3,4-dihydro-1H-benzo[4,5]imidazo[2,1-c][1,4]oxazine-8-carboxamide] | ≤ 5 | ≤ 5 | > 1000
7 | ≤ 5 | C[C@@H]1COCc2nc3cc(C(=O)Nc4ccc(OC(F)(F)Cl)cc4)cc(-c4cnc5c(c4)-c4nn(-c6nccc(-c7ccccc7F)n6)cc4C5)c3n21 [T-92, (R)-N-(4-(chlorodifluoromethoxy)phenyl)-6-(2-(4-(2-fluorophenyl)pyrimidin-2-yl)-2,4-dihydropyrazolo[3',4':3,4]cyclopenta[1,2-b]pyridin-7-yl)-4-methyl-3,4-dihydro-1H-benzo[4,5]imidazo[2,1-c][1,4]oxazine-8-carboxamide] | ≤ 5 | ≤ 5 | > 1000
8 | ≤ 5 | COc1cccc(-c2ccnc(-n3cc4c(n3)-c3cc(-c5cc(C(=O)Nc6ccc(OC(F)(F)Cl)cc6)cc6nc7n(c56)[C@H](C)COC7)cnc3C4)n2)c1F [T-93, (R)-N-(4-(chlorodifluoromethoxy)phenyl)-6-(2-(4-(2-fluoro-3-methoxyphenyl)pyrimidin-2-yl)-2,4-dihydropyrazolo[3',4':3,4]cyclopenta[1,2-b]pyridin-7-yl)-4-methyl-3,4-dihydro-1H-benzo[4,5]imidazo[2,1-c][1,4]oxazine-8-carboxamide] | ≤ 5 | ≤ 5 | > 1000
9 | ≤ 5 | C[C@@H]1COCc2nc3cc(C(=O)Nc4ccc(OC(F)(F)Cl)cc4)cc(-c4cnc5c(c4)-c4nn(-c6nccc(-c7ccc(F)nc7)n6)cc4C5)c3n21 [T-94, (R)-N-(4-(chlorodifluoromethoxy)phenyl)-6-(2-(4-(6-fluoropyridin-3-yl)pyrimidin-2-yl)-2,4-dihydropyrazolo[3',4':3,4]cyclopenta[1,2-b]pyridin-7-yl)-4-methyl-3,4-dihydro-1H-benzo[4,5]imidazo[2,1-c][1,4]oxazine-8-carboxamide] | ≤ 5 | ≤ 5 | > 1000
10 | ≤ 5 | C[C@@H]1COCc2nc3cc(C(=O)Nc4ccc(OC(F)(F)Cl)cc4)cc(-c4cnc5c(c4)-c4nn(-c6nccc(-c7cccnc7F)n6)cc4C5)c3n21 [T-95, (R)-N-(4-(chlorodifluoromethoxy)phenyl)-6-(2-(4-(2-fluoropyridin-3-yl)pyrimidin-2-yl)-2,4-dihydropyrazolo[3',4':3,4]cyclopenta[1,2-b]pyridin-7-yl)-4-methyl-3,4-dihydro-1H-benzo[4,5]imidazo[2,1-c][1,4]oxazine-8-carboxamide] | ≤ 5 | ≤ 5 | > 1000
11 | ≤ 5 | C[C@@H]1COCc2nc3cc(C(=O)Nc4ccc(OC(F)(F)Cl)cc4)cc(-c4cnc5c(c4)-c4nn(-c6nccc(-c7cncc(F)c7)n6)cc4C5)c3n21 [T-96, (R)-N-(4-(chlorodifluoromethoxy)phenyl)-6-(2-(4-(5-fluoropyridin-3-yl)pyrimidin-2-yl)-2,4-dihydropyrazolo[3',4':3,4]cyclopenta[1,2-b]pyridin-7-yl)-4-methyl-3,4-dihydro-1H-benzo[4,5]imidazo[2,1-c][1,4]oxazine-8-carboxamide] | ≤ 5 | ≤ 5 | > 1000
12 | ≤ 5 | COc1ncc(-c2ccnc(-n3cc4c(n3)-c3cc(-c5cc(C(=O)Nc6ccc(OC(F)(F)Cl)cc6)cc6nc7n(c56)[C@H](C)COC7)cnc3C4)n2)cc1F [T-97, (R)-N-(4-(chlorodifluoromethoxy)phenyl)-6-(2-(4-(5-fluoro-6-methoxyoyridin-3-yl)pyrimidin-2-yl)-2,4-dihydropyrazolo[3',4':3,4]cyclopenta[1,2-b]pyridin-7-yl)-4-methyl-3,4-dihydro-1H-benzo[4,5]imidazo[2,1-c][1,4]oxazine-8-carboxamide] | ≤ 5 | ≤ 5 | > 1000
